Measured values: patent publication US20190167593A1, “C[…] PHARMACEUTICALLY ACCEPTABLE SALT THEREOF, AND APPLICATION OF SAME” (priority 2016, published 2019)
Where “and” joins values, the source holds several entries; their conditions need not be identical. Equal entries are not always repeated. Entries after “also recorded” stand apart in the source; their conditions may differ.

Tests used:
H274Y virus = format: cell-based; details: read-out: IC50 against influenza virus replication (plaque formation), H274Y
[1] = system: NAI drug-resistant mutant stain H274Y-PR8 virus; set-up: species or system BALB/c mice; details: mouse, in vivo
[2] = system: H274Y mutant influenza virus; details: background statement; cited from earlier work

Compound	IC50 (H274Y virus)	body weight [1]	body weight decrease [1]	disease symptoms [1]	mortality rate [1]	decrease of activity due to the resistance caused by the mutation of H274Y [2]
Peramivir	643 nM	significant weight decline	about 6%	mild disease symptoms; also recorded: obvious disease symbols	60%	
CCOC(=O)C1=C[C@@H](OC(CC)CC)[C@H](NC(C)=O)[C@@H](N)C1.O=P(O)(O)O [Oseltamivir phosphate, ethyl (3R, 4R, 5S)-4-acetamido-5-amino-3-(1-ethylpropoxy)-1-cyclohexene-1-carboxylate phosphate]	15000 nM			obvious disease symptoms	40%	more than 300 times
CCCCS(=O)(=O)N[C@@H]1CCCN([C@@H]2C=C(C(=O)O)C[C@H](NC(=N)N)[C@H]2NC(C)=O)C1 [(3R,4R,5S)-4-acetamido-5-guanidino-3-((3R)-3-n-butylsulfonamidopiperidin)-1-cyclohexene-1-carboxylic acid]	130 nM and 131 nM	basically the same as that of the uninfected control mice; also recorded: decreased significantly		no symptoms of any diseases	20%	
